Values quoted from earlier work, collected in patent publication US10232044B2, “Controlled release aural pressure modulator compositions and methods for the treatment of OTIC disorders” (Otonomy, Inc., priority 2008, dated 2019).
Where two headings read alike, the source gives them in different places.

How the values were obtained:
[1] = test system: intra-ocular pressure; conditions: glaucoma patients
[2] = test system: endolymphatic hydrops
[3] = biological target: constitutively activated D136A mutant VP2 receptor (Homo sapiens, UniProt P30518, D136A)
[4] = test system: 8-isoprostaglandin F2α; conditions: sensorineural hearing loss animal models, noise exposure

Row | SMILES | intra-ocular pressure [1] | further results
1 | CCCCCCCC(=O)CC[C@@H]1[C@@H](C/C=C\CCCC(=O)O)[C@@H](O)C[C@H]1O [unoprostone] | reduce intra-ocular pressure | –
2 | CC(C)OC(=O)CCC/C=C\C[C@@H]1[C@@H](CC[C@@H](O)CCc2ccccc2)[C@H](O)C[C@@H]1O [latanoprost] | reduce intra-ocular pressure | –
3 | NC(=O)CC[C@@H]1NC(=O)[C@H](Cc2ccccc2)NC(=O)[C@H](Cc2ccc(O)cc2)NC(=O)[C@@H](N)CSSC[C@@H](C(=O)N2CCC[C@H]2C(=O)N[C@@H](CCCN=C(N)N)C(=O)NCC(N)=O)NC(=O)[C@H](CC(N)=O)NC1=O [VP] | – | endolymphatic hydrops ([2]; chronic administration, guinea pigs): induces endolymphatic hydrops; endolymphatic hydrops ([2]; systemic administration, guinea pig): development of endolymphatic hydrops
4 | CCOc1ccc2c(c1)C1(CCC(OCCN3CCOCC3)CC1)C(=O)N2S(=O)(=O)c1ccc(C(=O)NC(C)(C)C)cc1OC (stereo not drawn) [SR-1211463] | – | behaviour at D136A mutant VP2 receptor [3]: inverse agonist
5 | O=C(O)CCC/C=C\C[C@@H]1[C@H](CNNC(=O)Nc2ccccc2)[C@H]2CC[C@@H]1O2 [SQ29548] | – | noise-induced changes in cochlear blood flow and vascular conductance [4]: prevents these noise-induced changes
6 | CC(C)OC(=O)CCC/C=C\C[C@@H]1[C@@H](/C=C/[C@@H](O)COc2cccc(C(F)(F)F)c2)[C@H](O)C[C@@H]1O [travoprost] | reduce intra-ocular pressure | –
7 | CCCCC[C@H](O)/C=C/[C@@H]1[C@@H](C/C=C\CCCC(=O)O)[C@@H](O)C[C@H]1O [minprostin F2 alpha] | reduce intra-ocular pressure | –
8 | CCNC(=O)CCC/C=C\C[C@@H]1[C@@H](/C=C/[C@@H](O)CCc2ccccc2)[C@H](O)C[C@@H]1O [bimtoprost] | reduce intra-ocular pressure | –
